Measured values taken from patent publication US11834453B2, “Substituted pyrimido[5,4-d]pyrimidines as HER2 inhibitors” (Array BioPharma Inc., priority 2020, dated 2023).

Key:
[1] = molecular target: ErbB2 insYVMA (HER2-YVMA, SEQ ID NO: 2) (Homo sapiens, UniProt P04626, INS775YVMA/P1170A); test: biochemical; conditions: ErbB2 insYVMA enzyme assay; read-out: Assay 1 IC50
[2] = molecular target: ErbB2 WT (Homo sapiens (Human), UniProt P04626); test: ErbB enzyme assay (CisBio HTRF KinEASE-TK), Assay 2; format: biochemical
ErbB2 WT, sequence (P04626 23-1255): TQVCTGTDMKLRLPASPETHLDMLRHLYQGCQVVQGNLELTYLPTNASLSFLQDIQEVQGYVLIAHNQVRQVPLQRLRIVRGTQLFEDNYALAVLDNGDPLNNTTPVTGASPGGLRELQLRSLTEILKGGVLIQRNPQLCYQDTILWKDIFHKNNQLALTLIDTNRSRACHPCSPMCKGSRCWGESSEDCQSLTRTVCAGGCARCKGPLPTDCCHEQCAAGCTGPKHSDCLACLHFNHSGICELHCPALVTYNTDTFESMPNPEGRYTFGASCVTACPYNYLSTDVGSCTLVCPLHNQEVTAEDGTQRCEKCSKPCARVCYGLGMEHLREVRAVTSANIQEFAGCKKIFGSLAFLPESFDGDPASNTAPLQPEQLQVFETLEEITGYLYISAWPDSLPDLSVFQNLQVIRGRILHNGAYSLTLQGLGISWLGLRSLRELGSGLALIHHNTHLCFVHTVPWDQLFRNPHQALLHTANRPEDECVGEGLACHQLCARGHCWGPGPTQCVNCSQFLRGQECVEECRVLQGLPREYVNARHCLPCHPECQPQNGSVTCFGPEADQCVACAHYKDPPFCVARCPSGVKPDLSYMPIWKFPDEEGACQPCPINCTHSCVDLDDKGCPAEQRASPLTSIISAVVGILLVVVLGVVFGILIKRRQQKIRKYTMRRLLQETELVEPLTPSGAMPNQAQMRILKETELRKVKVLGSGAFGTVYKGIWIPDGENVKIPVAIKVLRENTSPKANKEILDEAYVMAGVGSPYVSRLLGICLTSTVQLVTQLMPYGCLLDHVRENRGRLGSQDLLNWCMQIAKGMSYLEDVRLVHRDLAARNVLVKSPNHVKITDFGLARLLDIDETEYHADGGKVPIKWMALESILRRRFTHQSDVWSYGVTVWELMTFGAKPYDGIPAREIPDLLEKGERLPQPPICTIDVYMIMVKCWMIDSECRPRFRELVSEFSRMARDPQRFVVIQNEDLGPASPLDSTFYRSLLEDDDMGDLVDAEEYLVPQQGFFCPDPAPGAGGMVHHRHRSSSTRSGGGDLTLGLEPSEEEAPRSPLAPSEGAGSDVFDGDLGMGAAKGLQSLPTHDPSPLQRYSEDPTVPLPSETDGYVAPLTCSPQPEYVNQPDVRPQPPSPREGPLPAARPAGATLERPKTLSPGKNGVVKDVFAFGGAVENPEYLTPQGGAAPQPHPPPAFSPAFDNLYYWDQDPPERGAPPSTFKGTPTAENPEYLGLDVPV
Outline: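 Readout is HTRF KinEASE-TK, using Sa-XL665 and cryptate antibody for 1 h at 22 °C, as percent of control between DMSO-only (100) and pre-quenched (0) reactions. The kinase reaction runs 30 min at 22 °C with 1 mM ATP and 250 nM biotinylated TK substrate, in HEPES pH 7.4 with MgCl2 and 2% DMSO.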

[3] = molecular target: EGFR (Homo sapiens (Human), UniProt P00533); test: ErbB enzyme assay (CisBio HTRF KinEASE-TK), Assay 3; format: biochemical
EGFR, sequence (P00533 25-1210): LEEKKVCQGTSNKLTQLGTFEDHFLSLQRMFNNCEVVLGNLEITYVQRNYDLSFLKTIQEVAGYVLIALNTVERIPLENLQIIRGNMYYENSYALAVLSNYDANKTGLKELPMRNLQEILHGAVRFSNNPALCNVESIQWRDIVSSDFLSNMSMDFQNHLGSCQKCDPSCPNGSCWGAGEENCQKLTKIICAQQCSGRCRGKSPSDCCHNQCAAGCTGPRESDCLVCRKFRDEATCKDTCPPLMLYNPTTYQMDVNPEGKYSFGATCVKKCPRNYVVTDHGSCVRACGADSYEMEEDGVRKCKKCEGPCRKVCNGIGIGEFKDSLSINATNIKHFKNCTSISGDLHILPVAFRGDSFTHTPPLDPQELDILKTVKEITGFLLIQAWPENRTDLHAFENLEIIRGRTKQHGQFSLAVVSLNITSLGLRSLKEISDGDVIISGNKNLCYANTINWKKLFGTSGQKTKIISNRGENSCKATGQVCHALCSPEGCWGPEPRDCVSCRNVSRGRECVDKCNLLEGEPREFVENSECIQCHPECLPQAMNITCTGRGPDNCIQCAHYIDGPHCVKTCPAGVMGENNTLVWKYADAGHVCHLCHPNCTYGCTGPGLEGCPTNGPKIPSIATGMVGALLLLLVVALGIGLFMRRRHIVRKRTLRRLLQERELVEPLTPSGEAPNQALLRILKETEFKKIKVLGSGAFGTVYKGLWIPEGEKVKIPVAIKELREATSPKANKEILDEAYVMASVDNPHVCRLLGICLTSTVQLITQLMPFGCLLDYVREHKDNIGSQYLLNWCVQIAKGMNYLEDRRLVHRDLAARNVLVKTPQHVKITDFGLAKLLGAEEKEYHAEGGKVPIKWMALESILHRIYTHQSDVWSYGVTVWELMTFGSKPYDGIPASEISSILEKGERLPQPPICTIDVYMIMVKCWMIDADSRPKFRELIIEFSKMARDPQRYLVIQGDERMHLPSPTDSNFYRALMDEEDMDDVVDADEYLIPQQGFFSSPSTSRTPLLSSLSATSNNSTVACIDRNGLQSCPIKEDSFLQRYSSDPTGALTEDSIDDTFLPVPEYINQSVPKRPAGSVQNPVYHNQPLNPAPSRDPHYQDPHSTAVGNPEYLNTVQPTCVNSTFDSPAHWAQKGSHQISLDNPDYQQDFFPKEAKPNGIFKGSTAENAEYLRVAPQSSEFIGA
Outline: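 First, enzyme was reacted with compound, 1 mM ATP and 250 nM biotinylated tyrosine-kinase peptide for 30 min at 22 °C at pH 7.4. Next, streptavidin-XL665 and cryptate antibody were added for 1 h. Finally, HTRF ratios were converted to POC and fitted to yield IC50.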

[4] = molecular target: ErbB2 with Exon 20 YVMA insertion (HER2-YVMA) (Homo sapiens (Human), UniProt P04626, INS775YVMA); test: Cellular phosphorylation assay, constitutive ErbB2 phosphorylation (Y1196) in engineered NIH 3T3 cells, Assay 4; format: cell-based
Outline: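 In-cell Western in NIH 3T3 cells carrying ErbB2 exon 20 YVMA insertion, with no ligand stimulation. One hour compound exposure at 37 °C before fixation and anti-pY1196 plus GAPDH staining with dual-wavelength fluorescence. IC50 derived after GAPDH normalization.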

[5] = molecular target: EGFR wild type (EGFR WT) (Homo sapiens (Human), UniProt P00533); test: Cellular phosphorylation assay, EGF-stimulated EGFR phosphorylation in engineered NIH 3T3 cells, Phospho-EGFR DuoSet IC ELISA, Assay 5; format: cell-based
Outline: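 Phospho-EGFR ELISA on lysates of engineered NIH 3T3 EGFR WT cells, IC50 derived from concentration curves. Cells plated at 20,000/well overnight, given compound dilutions 1 h at 37 °C, then rEGF 100 ng/ml for a further 10 min before lysis.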

[6] = molecular target: MDR1 (P-gp) (Homo sapiens (Human), UniProt P08183); test: MDR1 transfected MDCKII canine Mdr1 knockout permeability/efflux, Assay 7; conditions: dog, MDCK-MDR1
[7] = molecular target: BCRP (Homo sapiens (Human), UniProt Q9UNQ0); test: BCRP transfected MDCKII canine Mdr1 knockout permeability/efflux, Assay 9; conditions: dog
BCRP, sequence (Q9UNQ0 whole entry): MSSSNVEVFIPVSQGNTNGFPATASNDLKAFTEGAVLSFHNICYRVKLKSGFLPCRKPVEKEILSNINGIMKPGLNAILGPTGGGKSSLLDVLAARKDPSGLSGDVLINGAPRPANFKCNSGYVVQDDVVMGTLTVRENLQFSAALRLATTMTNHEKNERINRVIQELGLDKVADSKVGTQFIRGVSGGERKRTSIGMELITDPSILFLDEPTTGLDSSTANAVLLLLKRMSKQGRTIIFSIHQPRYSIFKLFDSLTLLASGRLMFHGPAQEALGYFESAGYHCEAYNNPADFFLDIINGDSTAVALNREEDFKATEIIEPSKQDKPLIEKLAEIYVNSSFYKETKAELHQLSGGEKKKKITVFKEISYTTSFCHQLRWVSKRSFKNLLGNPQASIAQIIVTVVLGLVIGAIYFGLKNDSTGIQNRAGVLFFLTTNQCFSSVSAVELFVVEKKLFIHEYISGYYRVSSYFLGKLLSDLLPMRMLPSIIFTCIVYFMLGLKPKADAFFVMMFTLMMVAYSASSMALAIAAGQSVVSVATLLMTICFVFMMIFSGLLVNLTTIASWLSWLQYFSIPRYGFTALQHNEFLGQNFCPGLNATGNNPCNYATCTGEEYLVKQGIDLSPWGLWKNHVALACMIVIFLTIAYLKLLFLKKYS
Protocol: BCRP transfected MDCKII cells (Assay 8) and BCRP transfected MDCKII canine Mdr1 knockout cells (Assay 9) were cultured and plated according to manufacturer's recommendations.
Both positive and negative controls were used to assess functionality of P-gp or BCRP efflux in the assays. Stock solutions for assay controls and the test article were prepared in DMSO for final test concentration of 1 μM. Final organic concentration in the assay was 1%. All dosing solutions contained 10 μM lucifer yellow to monitor MDCKII cell monolayer integrity.
For the apical to basolateral determination (A to B), 75 μL of the test article in transport buffer were added to the apical side of the individual transwells and 250 μL of basolateral media, without compound or lucifer yellow, were added to each well. For the basolateral to apical determination (B to A), 250 μL of test article in transport buffer were added to each well and 75 μL transport buffer, without compound or lucifer yellow, were added to each transwell. All tests were performed in triplicate, and each compound was tested for both apical to basolateral and basolateral to apical transport. The plates were incubated for 2 hours on a Lab-Line Instruments Titer Orbital Shaker (VWR, West Chester, PA) at 50 rpm and 37° C. with 5% CO2. All culture plates were removed from the incubator, 50 μL of media were removed from the apical and basolateral portion of each well, and added to 150 μL of 1 μM labetalol in 2:1 acetonitrile (ACN): H2O, v/v.
The plates were read using a Molecular Devices (Sunnyvale, CA) Gemini Fluorometer to evaluate the lucifer yellow concentrations at excitation/emission wavelengths of 425/535 nm. […] The plates were sealed, and the contents of each well analyzed by LC MS/MS. The compound concentrations were determined from the ratio of the peak areas of the compound to the internal standard (labetalol) in comparison to the dosing solution.
A MDS Sciex API 4000 (Applied Biosystems, Foster City, CA) mass spectrometer was used for detection of the analytes in the ion spray positive mode. Analyte responses were measured by multiple reaction monitoring (“MRM”) of transitions unique to each compound (the protonated precursor ion and selected product ions for each test article and m/z 329 to m/z 162 for labetalol, the internal standard.
The total run time, including re-equilibration, for a single injection was 1.2 minutes. […] The total run time, including re-equilibration, for a single injection was 0.61 minutes.
An efflux ratio is calculated from the mean apical to basolateral (A-B) Papp data and basolateral to apical (B-A) Papp data: Efflux ratio=Papp(B−A)/Papp(A−B)

[8] = Assay 9 Pe Ratio, efflux ratio Papp(B-A)/Papp(A-B), BCRP transfected MDCKII canine Mdr1 knockout

ErbB2 insYVMA (HER2-YVMA, SEQ ID NO: 2), sequence (P04626 with tags, fused parts or gaps INS775YVMA/P1170A limits assumed): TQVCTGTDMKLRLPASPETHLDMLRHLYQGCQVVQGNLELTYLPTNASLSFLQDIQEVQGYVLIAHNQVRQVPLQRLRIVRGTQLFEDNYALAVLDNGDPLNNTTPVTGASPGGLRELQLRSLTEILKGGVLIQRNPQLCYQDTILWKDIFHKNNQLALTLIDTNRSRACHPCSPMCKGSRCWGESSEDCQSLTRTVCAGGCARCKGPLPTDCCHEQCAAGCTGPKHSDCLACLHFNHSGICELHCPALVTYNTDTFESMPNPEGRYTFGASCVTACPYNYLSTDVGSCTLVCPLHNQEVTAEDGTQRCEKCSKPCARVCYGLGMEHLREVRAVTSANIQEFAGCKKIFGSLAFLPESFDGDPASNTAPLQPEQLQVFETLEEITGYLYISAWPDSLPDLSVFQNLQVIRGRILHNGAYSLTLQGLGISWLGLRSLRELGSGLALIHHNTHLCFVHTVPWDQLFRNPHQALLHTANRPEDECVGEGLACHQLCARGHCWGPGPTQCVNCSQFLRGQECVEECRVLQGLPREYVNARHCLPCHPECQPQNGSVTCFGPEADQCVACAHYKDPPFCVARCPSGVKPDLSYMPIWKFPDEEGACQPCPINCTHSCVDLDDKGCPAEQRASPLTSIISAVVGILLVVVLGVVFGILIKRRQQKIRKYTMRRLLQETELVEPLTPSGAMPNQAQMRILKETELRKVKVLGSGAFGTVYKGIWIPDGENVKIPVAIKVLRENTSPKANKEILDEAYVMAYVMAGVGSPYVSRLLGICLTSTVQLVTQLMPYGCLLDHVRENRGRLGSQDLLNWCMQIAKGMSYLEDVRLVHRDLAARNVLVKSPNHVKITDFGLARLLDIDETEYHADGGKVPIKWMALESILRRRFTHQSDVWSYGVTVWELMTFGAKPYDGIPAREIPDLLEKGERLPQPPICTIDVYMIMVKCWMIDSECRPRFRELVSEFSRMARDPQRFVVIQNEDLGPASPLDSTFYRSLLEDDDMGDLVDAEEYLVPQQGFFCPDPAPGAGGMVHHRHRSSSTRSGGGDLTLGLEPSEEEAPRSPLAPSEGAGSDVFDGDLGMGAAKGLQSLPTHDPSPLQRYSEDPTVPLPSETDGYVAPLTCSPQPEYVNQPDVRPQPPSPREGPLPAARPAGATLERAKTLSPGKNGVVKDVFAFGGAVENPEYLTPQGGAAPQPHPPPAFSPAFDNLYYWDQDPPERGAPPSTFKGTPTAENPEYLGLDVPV

SMILES	IC50 [1] [nM]	IC50 [2] [nM]	IC50 [3] [nM]	IC50 [4] [nM]	IC50 [5] [nM]	efflux ratio at 2 h, 1 μM [6]	efflux ratio at 2 h, 1 μM [7, 8]	efflux ratio at 2 h, 1 μM [7]
COC[C@H](O)CN(C)c1ncc2ncnc(Nc3ccc(Oc4ccc5c(c4)ncn5C)c(C)c3)c2n1 (racemic) [Example 100, rac-(R)-1-methoxy-3-(methyl(8-((3-methyl-4-((1-methyl-1H-benzo[d]imidazol-5-yl)oxy)phenyl)amino)pyrimido[5,4-d]pyrimidin-2-yl)amino)propan-2-ol]	28.8	31.8	4150	21.1	≥ 5000	1.5	18.2	–
Cc1cc(Nc2ncnc3cnc(N4CC[C@@](O)(C(F)F)C4)nc23)ccc1Oc1ccc2c(c1)ncn2C (racemic) [Example 106, rac-(R)-3-(difluoromethyl)-1-(8-((3-methyl-4-((1-methyl-1H-benzo[d]imidazol-5-yl)oxy)phenyl)amino)pyrimido[5,4-d]pyrimidin-2-yl)pyrrolidin-3-ol]	16.8	16.6	2840	18.4	≥ 5000	2.6	24.3	–
Cc1cc(Nc2ncnc3cnc(N4CC[C@@]45CCOC5)nc23)ccc1Oc1ccc2c(c1)ncn2C (single isomer, unassigned) [Example 93a]	17	16	1460	20.6	≥ 5000	1.3	–	1.9
Cc1cc(Nc2ncnc3cnc(N4C[C@@H](F)[C@@H](O)C4)nc23)ccc1Oc1ccc2c(c1)ncn2C [Example 91, (3S,4R)-4-fluoro-1-(8-((3-methyl-4-((1-methyl-1H-benzo[d]imidazol-5-yl)oxy)phenyl)amino)pyrimido[5,4-d]pyrimidin-2-yl)pyrrolidin-3-ol]	12.8	20.6	6830	14.1	≥ 5000	2.5	50.1	–
Cc1cc(Nc2ncnc3cnc(N4CC[C@@](C)(O)C4)nc23)ccc1Oc1ccn2ncnc2c1 [Example 110, (R)-1-(8-((4-([1,2,4]triazolo[1,5-a]pyridin-7-yloxy)-3-methylphenyl)amino)pyrimido[5,4-d]pyrimidin-2-yl)-3-methylpyrrolidin-3-ol]	33.5	32.8	3170	61.7	≥ 5000	1.9	32.2	–
Cc1cc(Nc2ncnc3cnc(N4CC[C@@H](C(C)(C)O)C4)nc23)ccc1Oc1ccc2c(c1)ncn2C [Example 113, (R)-2-(1-(8-((3-methyl-4-((1-methyl-1H-benzo[d]imidazol-5-yl)oxy)phenyl)amino)pyrimido[5,4-d]pyrimidin-2-yl)pyrrolidin-3-yl)propan-2-ol]	13.1	23	8480	9.5	≥ 5000	0.9	11	–
Cn1cnc2cc(Oc3ccc(Nc4ncnc5cnc(N6CCC7COCC76)nc45)cc3Cl)ccc21 (stereo not drawn) [Example 114, N-(3-chloro-4-((1-methyl-1H-benzo[d]imidazol-5-yl)oxy)phenyl)-6-(hexahydro-1H-furo[3,4-b]pyrrol-1-yl)pyrimido[5,4-d]pyrimidin-4-amine]	50.1	96.3	7890	20.1	≥ 5000	1.5	1.2	–
Cc1c(Oc2ccc3c(c2)ncn3C)ccc(Nc2ncnc3cnc(N(C)[C@H]4C[C@@](C)(O)C4)nc23)c1F [Example 116, (1s,3s)-3-((8-((2-fluoro-3-methyl-4-((1-methyl-1H-benzo[d]imidazol-5-yl)oxy)phenyl)amino)pyrimido[5,4-d]pyrimidin-2-yl)(methyl)amino)-1-methylcyclobutan-1-ol]	17.3	14.8	1170	27.8	≥ 5000	1.3	1.8	–
Cc1cc(Nc2ncnc3cnc(N4CCC(C)(O)CC4)nc23)ccc1Oc1ccn2ncnc2c1 [Example 120, 1-(8-((4-([1,2,4]triazolo[1,5-a]pyridin-7-yloxy)-3-methylphenyl)amino)pyrimido[5,4-d]pyrimidin-2-yl)-4-methylpiperidin-4-ol]	20.6	19	5340	49.4	≥ 5000	1.3	7.8	–
CC(C)(O)[C@@H]1CCN(c2ncc3ncnc(Nc4ccc(Oc5ccn6ncnc6c5)c(Cl)c4)c3n2)C1 [Example 122, (R)-2-(1-(8-((4-([1,2,4]triazolo[1,5-a]pyridin-7-yloxy)-3-chlorophenyl)amino)pyrimido[5,4-d]pyrimidin-2-yl)pyrrolidin-3-yl)propan-2-ol]	15.2	22.7	953	19.7	≥ 5000	1.7	7.3	–
CN(c1ncc2ncnc(Nc3ccc(Oc4ccc5c(c4)ncn5C)c(Cl)c3)c2n1)C1COC1 [Example 123, N8-(3-chloro-4-((1-methyl-1H-benzo[d]imidazol-5-yl)oxy)phenyl)-N2-methyl-N2-(oxetan-3-yl)pyrimido[5,4-d]pyrimidine-2,8-diamine]	26.5	118	≥ 10000	13.2	≥ 5000	1.6	2.4	–
Cc1cc(Nc2ncnc3cnc(N4CC[C@@H](C(C)(C)O)C4)nc23)ccc1Oc1ccn2ncnc2c1 [Example 124, (R)-2-(1-(8-((4-([1,2,4]triazolo[1,5-a]pyridin-7-yloxy)-3-methylphenyl)amino)pyrimido[5,4-d]pyrimidin-2-yl)pyrrolidin-3-yl)propan-2-ol]	16	14.3	2750	64.8	≥ 5000	1.4	10.3	–
Cn1cnc2cc(Oc3ccc(Nc4ncnc5cnc(N6CC[C@@H](CC#N)C6)nc45)cc3Cl)ccc21 [Example 134, (S)-2-(1-(8-((3-chloro-4-((1-methyl-1H-benzo[d]imidazol-5-yl)oxy)phenyl)amino)pyrimido[5,4-d]pyrimidin-2-yl)pyrrolidin-3-yl)acetonitrile]	55.1	–	≥ 10000	8.5	≥ 5000	1.8	6.8	–
Cc1cc(Nc2ncnc3cnc(N[C@@H]4CNCC4(F)F)nc23)ccc1Oc1ccc2c(c1)ncn2C [Example 297]	17.6	40	3320	29.4	≥ 5000	3.2	–	–
Cc1cc(Nc2ncnc3cnc(NCC4(O)COC4)nc23)ccc1Oc1ccc2c(c1)ncn2C [Example 319]	16.7	4.5	870	26.3	≥ 5000	10.6	–	–
CN(c1ncc2ncnc(Nc3ccc(Oc4ccn5ncnc5c4)c(Cl)c3)c2n1)[C@H]1CCCOC1 [Example 360]	24.9	25.5	≥ 10000	29.8	≥ 5000	1.3	–	–
CC1(O)CCN(c2ncc3ncnc(Nc4ccc(Oc5ccn6ncnc6c5)c(Cl)c4)c3n2)CC1 [Example 435]	11.8	32.8	4910	34.7	≥ 5000	1.2	–	–
Cc1cc(Nc2ncnc3cnc(N4CC[C@H](CC#N)C4)nc23)ccc1Oc1ccc2c(c1)ncn2C [Example 469]	19.1	44.8	≥ 10000	13.1	≥ 5000	1.6	–	–
Cc1cc(Nc2ncnc3cnc(N4C[C@@H]5C[C@H]4C[C@@H]5O)nc23)ccc1Oc1ccc2c(c1)ncn2C [Example 470]	38.3	52.3	6840	24.3	≥ 5000	2.5	–	–
Cn1cnc2cc(Oc3ccc(Nc4ncnc5cnc(N6CCN(C7COC7)CC6)nc45)cc3Cl)ccc21 [Example 485]	21.7	77.2	≥ 10000	11.1	≥ 5000	1.3	–	–
